Data from patent publication US9682071B2, “Methods of improving microvascular integrity” (INTERMUNE, INC., priority 2013, dated 2017).

System: trachea allograft mouse model of acute transplant rejection
Assay: murine orthotopic tracheal transplant model (allograft rejection)
Format: in vivo
Details: for tissue oxygenation (pO2): pirfenidone-treated allografted mice vs untreated allografted controls, over time post-transplantation (FIG. 3), pO2 in mm Hg
Description: Pirfenidone was tested in a murine orthotopic tracheal transplant model, as generally described in Babu et al., J Clin Invest. 2007; 117(12):3774-3785. In this model in which allograft rejection occurs, typically perfusion ceases after a fixed period of time which is highly reliable (10 days). […] Perfusion is later restored on rejecting allografts as recipient-derived vessels neovascularize the transplant on d28. In contrast, mice receiving syngeneic (identical) grafts maintain tissue oxygenation at approximately the same levels throughout. Magnified images of the microvasculature, obtained after i.v. injection of FITC-conjugated (green) tomato lectin to bind and identify perfused vasculature, are shown in FIG. 1B.

Cc1ccc(=O)n(-c2ccccc2)c1 [Pirfenidone, 5-methyl-1-phenyl-2-(1H)-pyridone]
fibrosis (allograft recipients fed pirfenidone in their chow): significantly attenuated | perfused vasculature (FITC-conjugated tomato lectin images) (allograft recipients fed pirfenidone in their chow, vs control allografted mice receiving no treatment): the vasculature is protected | appearance of vasculature at days 10 and 12 (pirfenidone in chow, days 10 and 12 post-transplantation, FITC-lectin images (FIG. 2)): robust | time vasculature is preserved (pirfenidone-treated allografted mice (FIG. 3)): at least 12 days post-transplantation | tissue oxygenation (pO2): maintained tissue oxygenation at approximately the same levels throughout the time period shown | tissue oxygenation (pO2) (listed as pirfenidone): maintaining tissue oxygenation levels at the same levels through at least day 12
